Measured values published in PubChem BioAssay AID328 (DTP/NCI, 2004).
Where “and” joins values, the source holds several entries; their conditions need not be identical. Equal entries are not always repeated. Inconclusive results and toxic doses are left out.

System: BDF1 mice, P388 leukemia ip, median survival T/C
Assay: NCI In Vivo Anticancer Drug Screen. Data for tumor model P388 Leukemia (intraperitoneal) in B6D2F1 (BDF1) mice
Conditions: endpoint: median survival time, higher = longer survival
Outline: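 Read-out is survival of treated animals expressed relative to the vehicle group, as a T/C ratio.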

[1] = dose: 50.0 mg/kg/injection, schedule: Q01DX009 (ip), vehicle: Klucel (hydroxypropylcellulose) (HPC)
[2] = dose: 50.0 mg/kg/injection, schedule: Q01DX009 (ip), vehicle: saline with Tween-80
[3] = dose: 100.0 mg/kg/injection, schedule: Q01DX009 (ip), vehicle: saline with Tween-80
[4] = dose: 200.0 mg/kg/injection, schedule: Q01DX009 (ip), vehicle: saline with Tween-80
[5] = dose: 100.0 mg/kg/injection, schedule: Q04DX003 (ip), vehicle: saline with Tween-80
[6] = dose: 200.0 mg/kg/injection, schedule: Q04DX003 (ip), vehicle: saline with Tween-80
[7] = dose: 400.0 mg/kg/injection, schedule: Q04DX003 (ip), vehicle: saline with Tween-80
[8] = dose: 100.0 mg/kg/injection, schedule: Q04DX002 (ip), vehicle: saline with Tween-80
[9] = dose: 200.0 mg/kg/injection, schedule: Q04DX002 (ip), vehicle: saline with Tween-80
[10] = dose: 400.0 mg/kg/injection, schedule: Q04DX002 (ip), vehicle: saline with Tween-80

CC(=O)NNc1ccccc1
T/C (dose: 12.5 mg/kg/injection, schedule: Q01DX009 (ip), vehicle: Klucel (hydroxypropylcellulose) (HPC)): 109 % of control | T/C (dose: 25.0 mg/kg/injection, schedule: Q01DX009 (ip), vehicle: Klucel (hydroxypropylcellulose) (HPC)): 109 % of control | T/C [1]: 100 % of control | T/C (dose: 200.0 mg/kg/injection, schedule: Q04DX003 (ip), vehicle: Klucel (hydroxypropylcellulose) (HPC)): 117 % of control

CCCB(O)O
T/C (dose: 100.0 mg/kg/injection, schedule: Q01DX001 (ip), vehicle: saline): 100 % of control | T/C (dose: 200.0 mg/kg/injection, schedule: Q01DX001 (ip), vehicle: saline): 113 % of control | T/C (dose: 400.0 mg/kg/injection, schedule: Q01DX001 (ip), vehicle: saline): 95 % of control

OC(CN1CC1)c1ccccc1 (stereo not drawn)
T/C (dose: 20.0 mg/kg/injection, schedule: Q04DX003 (ip), vehicle: saline): 90 % of control | T/C (dose: 40.0 mg/kg/injection, schedule: Q04DX003 (ip), vehicle: saline): 95 % of control | T/C (dose: 80.0 mg/kg/injection, schedule: Q04DX003 (ip), vehicle: saline): 100 % of control

COC(=O)c1c2ccccc2cn1Cc1ccccc1
T/C (dose: 25.0 mg/kg/injection, schedule: Q01DX009 (ip), vehicle: saline with Tween-80): 89 % of control | T/C [2]: 90 % of control and 93 % of control | T/C [3]: 100 % of control | T/C [4]: 100 % of control

COCCn1c2c(nc(C(=O)OC)/c1=N\C(=O)Nc1ccccc1)CCCC2
T/C [2]: 109 % of control | T/C [3]: 106 % of control | T/C [4]: 106 % of control

N#Cc1cnc(=S)n(-c2cc(C(F)(F)F)cc(C(F)(F)F)c2)c1N
T/C [2]: 101 % of control | T/C [3]: 115 % of control

COC(=O)C1(C(=O)OC)C2CC(C)=C(C)CC21 (stereo not drawn)
T/C (dose: 150.0 mg/kg/injection, schedule: Q04DX003 (ip), vehicle: saline): 95 % of control | T/C (dose: 300.0 mg/kg/injection, schedule: Q04DX003 (ip), vehicle: saline): 95 % of control

O/N=C/C=N/O.O/N=C/C=N/O.[Cl][Rh][Cl]
T/C (dose: 25.0 mg/kg/injection, schedule: Q01DX009 (ip), vehicle: saline): 99 % of control | T/C (dose: 50.0 mg/kg/injection, schedule: Q01DX009 (ip), vehicle: saline): 94 % of control | T/C (dose: 100.0 mg/kg/injection, schedule: Q01DX009 (ip), vehicle: saline): 108 % of control | T/C (dose: 200.0 mg/kg/injection, schedule: Q01DX009 (ip), vehicle: saline): 100 % of control | T/C (dose: 400.0 mg/kg/injection, schedule: Q01DX009 (ip), vehicle: saline): 91 % of control

COc1ccc(C2(C#N)CC2)cc1
T/C [3]: 95 % of control | T/C [5]: 91 % of control | T/C [4]: 100 % of control | T/C [6]: 100 % of control | T/C (dose: 400.0 mg/kg/injection, schedule: Q01DX009 (ip), vehicle: saline with Tween-80): 104 % of control | T/C [7]: 108 % of control

COC(=O)C1OC(C)(C)OC1C(=O)OC (stereo not drawn)
T/C [8]: 90 % of control | T/C [9]: 97 % of control | T/C [10]: 90 % of control

CCOCc1c(COc2ccc(OC)cc2)n(CC#CCOc2ccc(OC)cc2)c2ccc(Br)cc12
T/C [2]: 101 % of control | T/C [3]: 93 % of control | T/C [4]: 98 % of control

Nc1ccc(O)c2ncccc12
T/C (dose: 7.5 mg/kg/injection, schedule: Q01DX010 (ip), vehicle: saline): 115 % of control | T/C (dose: 15.0 mg/kg/injection, schedule: Q01DX010 (ip), vehicle: saline): 110 % of control

CCCNC(=O)Nc1cc(Cl)ccc1OC
T/C [5]: 95 % of control | T/C [7]: 95 % of control

COc1cc(C2c3cc4c(cc3C(O)C(CO)C2CO)OCO4)cc(OC)c1OC (stereo not drawn)
T/C (dose: 17.5 mg/kg/injection, schedule: Q01DX009 (ip), vehicle: Klucel (hydroxypropylcellulose) (HPC)): 176 % of control | T/C (dose: 35.0 mg/kg/injection, schedule: Q01DX009 (ip), vehicle: Klucel (hydroxypropylcellulose) (HPC)): 209 % of control | T/C (dose: 37.5 mg/kg/injection, schedule: Q04DX003 (ip), vehicle: saline sonified): 109 % of control | T/C (dose: 44.0 mg/kg/injection, schedule: Q01DX009 (ip), vehicle: saline with Tween-80): 150 % of control | T/C (dose: 44.0 mg/kg/injection, schedule: Q04DX003 (ip), vehicle: saline sonified): 100 % of control | T/C (dose: 66.0 mg/kg/injection, schedule: Q01DX009 (ip), vehicle: saline with Tween-80): 150 % of control | T/C (dose: 66.0 mg/kg/injection, schedule: Q04DX003 (ip), vehicle: saline sonified): 105 % of control | T/C (dose: 70.0 mg/kg/injection, schedule: Q01DX009 (ip), vehicle: Klucel (hydroxypropylcellulose) (HPC)): 228 % of control and 159 % of control | T/C (dose: 75.0 mg/kg/injection, schedule: Q04DX003 (ip), vehicle: saline sonified): 122 % of control | T/C [3]: 209 % of control | T/C (dose: 100.0 mg/kg/injection, schedule: Q04DX003 (ip), vehicle: saline sonified): 110 % of control | T/C [5]: 160 % of control and 183 % of control | T/C (dose: 140.0 mg/kg/injection, schedule: Q01DX009 (ip), vehicle: Klucel (hydroxypropylcellulose) (HPC)): 172 % of control | T/C (dose: 150.0 mg/kg/injection, schedule: Q01DX009 (ip), vehicle: saline with Tween-80): 159 % of control | T/C (dose: 150.0 mg/kg/injection, schedule: Q04DX003 (ip), vehicle: saline sonified): 110 % of control | T/C (dose: 150.0 mg/kg/injection, schedule: Q04DX003 (ip), vehicle: saline with Tween-80): 160 % of control | T/C [6]: 172 % of control and 191 % of control | T/C (dose: 225.0 mg/kg/injection, schedule: Q04DX003 (ip), vehicle: saline with Tween-80): 190 % of control | T/C (dose: 300.0 mg/kg/injection, schedule: Q04DX003 (ip), vehicle: saline sonified): 200 % of control | T/C [7]: 200 % of control and 204 % of control

CC1CC(OC(=O)CCN2CC2)CC(C)(C)C1 (stereo not drawn)
T/C (dose: 5.0 mg/kg/injection, schedule: Q04DX003 (ip), vehicle: Klucel (hydroxypropylcellulose) (HPC)): 95 % of control and 109 % of control | T/C (dose: 10.0 mg/kg/injection, schedule: Q04DX003 (ip), vehicle: Klucel (hydroxypropylcellulose) (HPC)): 104 % of control | T/C (dose: 20.0 mg/kg/injection, schedule: Q04DX003 (ip), vehicle: Klucel (hydroxypropylcellulose) (HPC)): 100 % of control

Nc1ncnc2c1ncn2C1CCCO1 (stereo not drawn)
T/C [2]: 100 % of control | T/C [3]: 109 % of control | T/C (dose: 100.0 mg/kg/injection, schedule: Q04DX003 (ip), vehicle: saline): 100 % of control | T/C [4]: 109 % of control | T/C (dose: 200.0 mg/kg/injection, schedule: Q04DX003 (ip), vehicle: saline): 95 % of control

CC([CH2][Hg][Cl])c1ccccc1 (stereo not drawn)
T/C (dose: 3.13 mg/kg/injection, schedule: Q01DX009 (ip), vehicle: saline with Tween-80): 122 % of control | T/C (dose: 4.16 mg/kg/injection, schedule: Q01DX009 (ip), vehicle: saline with Tween-80): 118 % of control | T/C (dose: 6.25 mg/kg/injection, schedule: Q01DX009 (ip), vehicle: saline with Tween-80): 113 % of control | T/C (dose: 9.38 mg/kg/injection, schedule: Q01DX009 (ip), vehicle: saline with Tween-80): 109 % of control | T/C (dose: 12.5 mg/kg/injection, schedule: Q01DX009 (ip), vehicle: saline with Tween-80): 109 % of control

CC(C)(C)NCC(O)c1cc(C(F)(F)F)nc2c(C(F)(F)F)cccc12 (stereo not drawn)
T/C [2]: 100 % of control | T/C [3]: 100 % of control | T/C [4]: 97 % of control

COC1(F)C2(Cl)C=C(c3ccccc3)C1(Cl)C(Cl)=C2Cl (stereo not drawn)
T/C [8]: 101 % of control | T/C [9]: 111 % of control | T/C [10]: 100 % of control

S=C(NCCCN1CCOCC1)NN=C1c2ccccc2-c2ccccc21
T/C [2]: 97 % of control | T/C [3]: 91 % of control | T/C [4]: 97 % of control

CC(C)C1=C(O)C2=C(C(=O)C1=O)C1(C)CCCC(C)(C)C1CC2O (stereo not drawn)
T/C (dose: 2.0 mg/kg/injection, schedule: Q01DX010 (ip), vehicle: carboxymethylcellulose (CMC)): 100 % of control | T/C (dose: 5.0 mg/kg/injection, schedule: Q01DX010 (ip), vehicle: carboxymethylcellulose (CMC)): 95 % of control | T/C (dose: 10.0 mg/kg/injection, schedule: Q01DX010 (ip), vehicle: carboxymethylcellulose (CMC)): 90 % of control | T/C (dose: 20.0 mg/kg/injection, schedule: Q01DX010 (ip), vehicle: carboxymethylcellulose (CMC)): 105 % of control

CC1N2C3(c4ccccc4)OC(c4ccccc4)(c4ccccc43)C12c1ccccc1 (stereo not drawn)
T/C [1]: 104 % of control | T/C (dose: 100.0 mg/kg/injection, schedule: Q01DX009 (ip), vehicle: Klucel (hydroxypropylcellulose) (HPC)): 100 % of control | T/C (dose: 200.0 mg/kg/injection, schedule: Q01DX009 (ip), vehicle: Klucel (hydroxypropylcellulose) (HPC)): 89 % of control

COc1cccc(N2C(N)=NC(N)=NC2(C)C)c1
T/C (dose: 9.37 mg/kg/injection, schedule: Q01DX009 (ip), vehicle: Klucel (hydroxypropylcellulose) (HPC)): 108 % of control | T/C (dose: 18.75 mg/kg/injection, schedule: Q01DX009 (ip), vehicle: Klucel (hydroxypropylcellulose) (HPC)): 93 % of control
